Target: T1, Microtubule affinity regulatory kinase 4 (MARK4) (Homo sapiens, UniProt Q96L34)
T1 sequence (Q96L34 1-752): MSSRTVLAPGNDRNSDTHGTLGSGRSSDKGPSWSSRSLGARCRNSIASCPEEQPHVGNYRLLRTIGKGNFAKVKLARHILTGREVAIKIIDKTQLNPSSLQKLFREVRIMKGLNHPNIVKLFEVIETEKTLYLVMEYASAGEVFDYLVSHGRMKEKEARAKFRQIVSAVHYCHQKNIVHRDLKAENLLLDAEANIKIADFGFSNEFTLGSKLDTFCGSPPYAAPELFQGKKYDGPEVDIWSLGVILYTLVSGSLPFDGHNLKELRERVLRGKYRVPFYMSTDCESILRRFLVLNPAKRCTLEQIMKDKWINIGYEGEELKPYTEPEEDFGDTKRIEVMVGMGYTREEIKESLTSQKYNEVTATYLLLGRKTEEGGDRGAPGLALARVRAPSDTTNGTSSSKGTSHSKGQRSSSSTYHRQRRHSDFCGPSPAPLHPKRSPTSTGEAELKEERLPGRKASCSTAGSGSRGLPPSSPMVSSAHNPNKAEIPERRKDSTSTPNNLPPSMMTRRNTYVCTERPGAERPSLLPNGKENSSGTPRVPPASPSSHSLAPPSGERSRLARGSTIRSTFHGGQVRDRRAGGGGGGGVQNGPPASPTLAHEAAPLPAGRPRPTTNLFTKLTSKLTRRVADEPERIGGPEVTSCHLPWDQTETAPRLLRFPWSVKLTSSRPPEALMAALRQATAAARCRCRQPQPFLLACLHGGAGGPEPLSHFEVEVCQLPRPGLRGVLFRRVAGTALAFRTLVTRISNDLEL
Assay: malachite green ATPase
Type: biochemical

Row | IC50 [µM] | SMILES
1 | 7.63 | CC#CCn1c(N2CCC[C@@H](N)C2)nc2c1c(=O)n(Cc1nc(C)c3ccccc3n1)c(=O)n2C [linagliptin]
2 | 7.1 | OC[C@H]1O[C@@H](c2ccc(Cl)c(Cc3ccc(O[C@H]4CCOC4)cc3)c2)[C@H](O)[C@@H](O)[C@@H]1O [empagliflozin]

From publication PMC9948186 (ACS Omega, 2023)
